Results published in publication PMC12028159, “L-Rhamnose Dehydrogenase LraA of Aspergillus niger Shows High Substrate Specificity Matching Its Expression Profile” (Journal of Fungi, 2025).

Tested on: LraA (L-rhamnose dehydrogenase)
Experiment: NADH formation at […] nm, Michaelis-Menten fit
Assay type: biochemical, Aspergillus niger
Conditions: NAD+ 1 mM as co-substrate, 100 mM Tris-HCl pH 8.0, 25 °C

- Km: 2400 ± 900 µM
SMILES: C[C@@H]1OC(O)[C@H](O)[C@H](O)[C@H]1O (stereo partly drawn) [L-rhamnose]
